Laboratory results from PMC3609026 (Cancer, 2011).
Read-outs that look alike come from different tables or passages of the source.

What was measured:
[1] = type: in vivo, human; conditions: through cycles 1 and 2, combination treatment
[2] = Pharmacokinetics: everolimus blood levels, LC/MS, noncompartmental analysis; type: in vivo, human; conditions: through cycles 1 and 2, combination treatment
[3] = tested on: advanced non-clear cell RCC; conditions: single agent, 23 patients with advanced non-clear cell RCC; cited from earlier work

For CCNCCNC(=O)c1c(C)[nH]c(/C=C2\C(=O)Nc3ccc(F)cc32)c1C [N-desethyl sunitinib], the accumulation [1] was “No unexpected accumulation”.

With CO[C@H]1C[C@@H]2CC[C@@H](C)[C@@](O)(O2)C(=O)C(=O)N2CCCC[C@H]2C(=O)O[C@H]([C@H](C)C[C@@H]2CC[C@@H](OCCO)[C@H](OC)C2)CC(=O)[C@H](C)/C=C(\C)[C@@H](O)[C@@H](OC)C(=O)[C@H](C)C[C@H](C)/C=C/C=C/C=C/1C [everolimus] the accumulation [2] was “No unexpected accumulation”.

In the case of CCN(CC)CCNC(=O)c1c(C)[nH]c(/C=C2\C(=O)Nc3ccc(F)cc32)c1C [sunitinib], the “median PFS” value [3] is given as 5.5 months and the responses [3] is given as “no responses”.
